Assays:
[1] = biological target: PI3-kinase p110-delta/p85-alpha (Homo sapiens, UniProt O00329); experiment: biochemical
Description: Inhibition of N-terminal His6-tagged recombinant full length human p110delta/untagged recombinant full length human p85alpha expressed in baculovirus infected Sf21 insect cells using PIP2 as substrate measured after 80 mins by transcreener fluorescence polarization assay

[2] = biological target: T1, Phosphatidylinositol 4,5-bisphosphate 3-kinase catalytic subunit delta isoform (Homo sapiens, UniProt O00329); experiment: Inhibition of PI3Kdelta in human Ramos cells assessed as reduction in antihuman IgM-stimulated AKT phosphorylation at Ser473 residue preincubated for 60 mins followed by antihuman IgM stimulation and measured after 15 mins; format: cell-based
T1 sequence (O00329 whole entry): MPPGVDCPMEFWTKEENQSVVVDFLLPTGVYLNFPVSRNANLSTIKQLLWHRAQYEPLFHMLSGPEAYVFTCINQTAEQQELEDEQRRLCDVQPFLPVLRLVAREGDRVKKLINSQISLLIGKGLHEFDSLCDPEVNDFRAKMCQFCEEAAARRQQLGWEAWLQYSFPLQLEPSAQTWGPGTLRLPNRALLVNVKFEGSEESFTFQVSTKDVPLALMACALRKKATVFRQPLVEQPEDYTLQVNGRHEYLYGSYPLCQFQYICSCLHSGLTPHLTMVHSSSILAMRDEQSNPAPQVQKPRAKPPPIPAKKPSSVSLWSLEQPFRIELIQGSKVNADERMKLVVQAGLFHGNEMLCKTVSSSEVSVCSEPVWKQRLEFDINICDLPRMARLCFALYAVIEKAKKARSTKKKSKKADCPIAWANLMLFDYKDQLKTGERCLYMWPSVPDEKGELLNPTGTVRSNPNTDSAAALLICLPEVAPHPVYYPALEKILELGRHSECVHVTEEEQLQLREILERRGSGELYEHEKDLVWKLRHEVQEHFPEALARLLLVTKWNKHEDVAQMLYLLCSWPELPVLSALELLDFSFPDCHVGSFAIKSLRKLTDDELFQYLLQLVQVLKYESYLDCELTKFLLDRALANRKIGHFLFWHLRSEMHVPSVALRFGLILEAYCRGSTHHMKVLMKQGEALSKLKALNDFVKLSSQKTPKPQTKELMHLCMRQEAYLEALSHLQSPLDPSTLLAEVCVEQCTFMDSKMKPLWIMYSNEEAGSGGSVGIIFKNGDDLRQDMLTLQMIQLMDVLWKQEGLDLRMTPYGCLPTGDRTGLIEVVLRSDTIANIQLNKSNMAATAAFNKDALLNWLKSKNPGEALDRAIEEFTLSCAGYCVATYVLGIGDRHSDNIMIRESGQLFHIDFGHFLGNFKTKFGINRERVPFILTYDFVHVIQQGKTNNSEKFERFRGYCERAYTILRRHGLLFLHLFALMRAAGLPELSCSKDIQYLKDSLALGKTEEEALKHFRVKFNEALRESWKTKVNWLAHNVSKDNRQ

[3] = Stability in human liver microsomes assessed as parent compound remaining at 1 uM measured after 30 mins in presence of NADPH generating system
[4] = biological target: PI3-kinase p110-alpha/p85-alpha (Homo sapiens, UniProt P42336); experiment: Inhibition of recombinant human full-length N-terminal His-tagged PI3K p110alpha/p85alpha expressed in baculovirus expression system at 1 uM using PIP2 as substrate measured after 80 mins by transcreener fluorescence polarization assay relative to control
[5] = biological target: T2, PI3K p110 beta/p85 alpha (Homo sapiens, UniProt P42338); experiment: Inhibition of N-terminal His6-tagged recombinant full length human p110beta/untagged recombinant full length human p85alpha expressed in baculovirus infected Sf21 insect cells using PIP2 as substrate measured after 80 mins by transcreener fluorescence polarization assay
[6] = Inhibition of PI3Kgamma in […] RAW264.7 cells assessed as reduction in C5a-stimulated AKT phosphorylation at Ser473 residue preincubated for 30 mins followed by C5a-stimulation and measured after 5 mins; format: cell-based
[7] = biological target: Phosphatidylinositol 4,5-bisphosphate 3-kinase catalytic subunit gamma isoform (Homo sapiens, UniProt P48736)
Description: Inhibition of recombinant human full-length His-tagged PI3K p110gamma expressed in baculovirus expression system using PIP2 as substrate measured after 80 mins by transcreener fluorescence polarization assay

[8] = Stability in rat liver microsomes assessed as parent compound remaining at 1 uM measured after 30 mins in presence of NADPH generating system
[9] = Inhibition of PI3Kdelta in rat whole blood assessed as reduction in anti-IgD-stimulated CD86 expression on B-cells preincubated for 60 mins followed by anti-IgD stimulation and measured after overnight incubation by flow cytometry; format: tissue-based
[10] = biological target: T2, PI3K p110 beta/p85 alpha; experiment: Inhibition of N-terminal His6-tagged recombinant full length human p110beta/untagged recombinant full length human p85alpha expressed in baculovirus infected Sf21 insect cells at 1 uM using PIP2 as substrate measured after 80 mins by transcreener fluorescence polarization assay relative to control

Chain of PI3-kinase p110-alpha/p85-alpha (P27986 whole entry): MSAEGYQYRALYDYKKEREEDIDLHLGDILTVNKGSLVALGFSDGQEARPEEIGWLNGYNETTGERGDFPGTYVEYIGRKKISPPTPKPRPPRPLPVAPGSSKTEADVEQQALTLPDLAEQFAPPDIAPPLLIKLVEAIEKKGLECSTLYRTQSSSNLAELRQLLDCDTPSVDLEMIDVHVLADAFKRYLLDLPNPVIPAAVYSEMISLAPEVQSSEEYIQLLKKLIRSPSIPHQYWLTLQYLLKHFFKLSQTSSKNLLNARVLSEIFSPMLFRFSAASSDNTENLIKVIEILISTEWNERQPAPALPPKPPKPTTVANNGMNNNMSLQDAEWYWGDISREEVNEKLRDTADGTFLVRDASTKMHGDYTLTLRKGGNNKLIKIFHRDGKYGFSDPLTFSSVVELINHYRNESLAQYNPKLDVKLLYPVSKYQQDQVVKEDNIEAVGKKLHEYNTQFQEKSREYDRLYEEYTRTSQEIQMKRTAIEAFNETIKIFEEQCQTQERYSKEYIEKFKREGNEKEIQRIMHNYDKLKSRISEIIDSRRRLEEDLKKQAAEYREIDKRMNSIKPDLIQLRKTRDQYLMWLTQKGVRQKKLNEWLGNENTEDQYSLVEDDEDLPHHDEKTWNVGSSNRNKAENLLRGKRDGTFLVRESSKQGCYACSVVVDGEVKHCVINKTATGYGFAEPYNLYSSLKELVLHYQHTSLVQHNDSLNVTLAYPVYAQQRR
Chain of PI3-kinase p110-alpha/p85-alpha (P42336 whole entry): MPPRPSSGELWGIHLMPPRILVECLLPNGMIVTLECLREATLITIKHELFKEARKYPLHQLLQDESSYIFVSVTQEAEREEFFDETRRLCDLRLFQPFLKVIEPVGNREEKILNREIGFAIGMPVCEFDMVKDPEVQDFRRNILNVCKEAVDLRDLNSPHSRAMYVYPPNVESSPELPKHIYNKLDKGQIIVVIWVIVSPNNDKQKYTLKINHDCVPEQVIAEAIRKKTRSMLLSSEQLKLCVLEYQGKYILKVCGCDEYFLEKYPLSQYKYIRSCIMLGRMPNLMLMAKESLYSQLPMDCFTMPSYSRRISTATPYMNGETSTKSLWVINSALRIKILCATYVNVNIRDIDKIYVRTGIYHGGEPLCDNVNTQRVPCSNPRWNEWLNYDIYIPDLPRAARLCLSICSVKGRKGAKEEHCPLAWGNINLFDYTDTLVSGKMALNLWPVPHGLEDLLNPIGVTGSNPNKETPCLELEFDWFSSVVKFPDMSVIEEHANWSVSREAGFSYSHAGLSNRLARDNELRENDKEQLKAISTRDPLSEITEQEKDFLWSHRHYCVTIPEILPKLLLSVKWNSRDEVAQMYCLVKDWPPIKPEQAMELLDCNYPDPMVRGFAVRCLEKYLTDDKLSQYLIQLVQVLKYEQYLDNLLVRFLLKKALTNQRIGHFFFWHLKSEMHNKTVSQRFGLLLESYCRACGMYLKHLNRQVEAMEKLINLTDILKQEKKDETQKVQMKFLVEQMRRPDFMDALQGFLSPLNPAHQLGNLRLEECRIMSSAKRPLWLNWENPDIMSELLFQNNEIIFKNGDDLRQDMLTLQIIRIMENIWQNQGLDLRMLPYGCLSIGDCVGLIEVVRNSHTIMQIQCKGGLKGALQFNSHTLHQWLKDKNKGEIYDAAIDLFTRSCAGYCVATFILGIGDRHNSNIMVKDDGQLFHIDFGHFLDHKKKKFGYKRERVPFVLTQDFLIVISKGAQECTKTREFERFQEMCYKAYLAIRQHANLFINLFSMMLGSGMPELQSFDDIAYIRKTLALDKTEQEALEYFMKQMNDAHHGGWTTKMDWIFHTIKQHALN
T2 sequence (P27986 whole entry): as the sequence (P27986 whole entry) above
T2 sequence (P42338 whole entry): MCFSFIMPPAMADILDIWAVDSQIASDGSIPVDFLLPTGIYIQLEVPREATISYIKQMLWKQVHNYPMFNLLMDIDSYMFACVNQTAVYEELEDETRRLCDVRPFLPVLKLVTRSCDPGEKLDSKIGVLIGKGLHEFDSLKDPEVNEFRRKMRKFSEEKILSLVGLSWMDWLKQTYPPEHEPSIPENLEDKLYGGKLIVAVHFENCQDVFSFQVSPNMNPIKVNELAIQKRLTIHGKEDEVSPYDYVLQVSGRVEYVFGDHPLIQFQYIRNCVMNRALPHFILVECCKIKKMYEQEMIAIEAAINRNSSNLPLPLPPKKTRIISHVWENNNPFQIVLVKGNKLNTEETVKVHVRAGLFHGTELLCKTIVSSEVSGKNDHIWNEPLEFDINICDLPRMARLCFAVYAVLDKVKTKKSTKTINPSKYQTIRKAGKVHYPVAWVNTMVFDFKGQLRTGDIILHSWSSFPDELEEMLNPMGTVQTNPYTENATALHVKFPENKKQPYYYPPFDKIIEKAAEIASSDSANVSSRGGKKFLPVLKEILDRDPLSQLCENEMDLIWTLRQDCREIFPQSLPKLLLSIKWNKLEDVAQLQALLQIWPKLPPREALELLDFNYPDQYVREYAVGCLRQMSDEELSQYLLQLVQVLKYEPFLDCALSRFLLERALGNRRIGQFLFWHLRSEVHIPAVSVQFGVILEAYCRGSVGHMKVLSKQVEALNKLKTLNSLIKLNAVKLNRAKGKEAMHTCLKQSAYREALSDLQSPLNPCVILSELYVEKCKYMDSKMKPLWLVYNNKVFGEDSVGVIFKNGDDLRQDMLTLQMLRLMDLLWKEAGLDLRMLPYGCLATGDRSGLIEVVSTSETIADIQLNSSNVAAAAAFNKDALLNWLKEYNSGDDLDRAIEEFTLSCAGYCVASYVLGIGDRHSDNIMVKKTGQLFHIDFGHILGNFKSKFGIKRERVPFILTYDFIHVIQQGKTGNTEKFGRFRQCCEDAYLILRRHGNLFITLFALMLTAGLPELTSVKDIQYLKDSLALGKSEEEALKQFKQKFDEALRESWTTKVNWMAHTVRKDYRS
Chain of Phosphatidylinositol 4,5-bisphosphate 3-kinase catalytic subunit gamma isoform (P48736 whole entry, canonical isoform): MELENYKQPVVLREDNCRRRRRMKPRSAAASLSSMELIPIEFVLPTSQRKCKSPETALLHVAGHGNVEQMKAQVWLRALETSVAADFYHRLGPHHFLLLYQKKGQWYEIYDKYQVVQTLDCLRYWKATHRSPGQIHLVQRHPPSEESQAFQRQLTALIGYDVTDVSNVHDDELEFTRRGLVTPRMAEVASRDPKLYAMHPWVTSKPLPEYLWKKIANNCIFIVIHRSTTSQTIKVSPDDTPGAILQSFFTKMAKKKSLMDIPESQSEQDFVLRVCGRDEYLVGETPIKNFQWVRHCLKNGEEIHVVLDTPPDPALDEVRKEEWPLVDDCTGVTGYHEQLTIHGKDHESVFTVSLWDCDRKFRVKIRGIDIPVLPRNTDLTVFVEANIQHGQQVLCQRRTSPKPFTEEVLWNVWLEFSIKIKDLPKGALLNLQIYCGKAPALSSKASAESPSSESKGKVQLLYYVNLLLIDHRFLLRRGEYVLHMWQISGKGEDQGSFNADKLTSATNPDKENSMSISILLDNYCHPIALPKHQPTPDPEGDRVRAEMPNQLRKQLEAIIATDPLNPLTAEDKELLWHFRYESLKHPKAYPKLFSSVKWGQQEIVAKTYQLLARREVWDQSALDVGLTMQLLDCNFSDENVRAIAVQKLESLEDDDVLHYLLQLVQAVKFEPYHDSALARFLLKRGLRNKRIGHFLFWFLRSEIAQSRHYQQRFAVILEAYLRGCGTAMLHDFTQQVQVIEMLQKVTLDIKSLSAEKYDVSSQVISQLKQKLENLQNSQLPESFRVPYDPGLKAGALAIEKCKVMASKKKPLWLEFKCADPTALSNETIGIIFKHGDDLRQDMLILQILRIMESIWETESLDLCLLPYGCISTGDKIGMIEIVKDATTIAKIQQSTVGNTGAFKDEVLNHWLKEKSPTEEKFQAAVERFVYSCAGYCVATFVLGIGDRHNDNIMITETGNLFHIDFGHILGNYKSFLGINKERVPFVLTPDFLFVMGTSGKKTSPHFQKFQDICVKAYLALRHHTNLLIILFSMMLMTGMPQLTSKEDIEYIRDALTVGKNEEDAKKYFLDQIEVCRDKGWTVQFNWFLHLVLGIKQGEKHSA
Chain of PI3-kinase p110-delta/p85-alpha (P27986 whole entry, one chain of several, canonical isoform): as the sequence (P27986 whole entry) above

Row | SMILES | remaining at 0.5 h, 1 µM [3] | inhibition at 1 µM [4] | IC50 [6] | remaining at 0.5 h, 1 µM [8] | inhibition at 1 µM [10] | further results
1 | N#Cc1c[nH]c2ncnc(N3CC[C@H]3c3nn4ccc(Cl)c4c(=O)n3-c3ccccc3)c12 | 89.8% | -0.3% | 152 nM | 63.9% |  | IC50 [1]: 13 nM; IC50 [2]: 21 nM; IC50 [5]: 945 nM; IC50 [7]: 34 nM
2 | C[C@H](Nc1ncnc2nc[nH]c12)c1cc2cccc(Cl)c2c(=O)n1-c1ccccc1 [DUVELISIB] |  |  | 25 nM |  |  | IC50 [9]: 2 nM
3 | N#Cc1c[nH]c2ncnc(N3CCC[C@H]3c3nn4ccc(Cl)c4c(=O)n3-c3ccccc3)c12 |  |  |  | 38.7% |  | 
4 | CC(=O)c1c[nH]c2ncnc(N3CC[C@H]3c3nn4ccc(Cl)c4c(=O)n3-c3ccccc3)c12 | 83% | 8.4% | 142 nM | 77.2% | 45.9% | IC50 [2]: 21 nM
5 | O=c1c2c(Cl)ccn2nc([C@@H]2CCCN2c2ncnc3[nH]cnc23)n1-c1ccccc1 | 72.6% |  |  | 38.8% |  | 
6 | O=c1c2c(Cl)ccn2nc([C@@H]2CCN2c2ncnc3[nH]cnc23)n1-c1ccccc1 | 95.4% | -1.5% |  | 78.5% | 18.5% | 
7 | O=c1c2c(Cl)ccn2nc([C@@H]2CCCN2c2ncnc3[nH]cnc23)n1-c1cccc(F)c1 | 64.3% |  | 8 nM | 34.6% | 54.8% | 
8 | N#Cc1cnc(N)nc1N1CC[C@H]1c1nn2ccc(Cl)c2c(=O)n1-c1ccccc1 | 71.2% | < 50% | 241 nM | 77.5% | 37% | IC50 [2]: 16 nM
9 | CC(=O)c1c[nH]c2ncnc(N3C[C@@H](F)C[C@H]3c3nn4ccc(Cl)c4c(=O)n3-c3ccccc3)c12 | 20.1% |  |  | 60.4% |  | 
10 | O=c1c2cccn2nc([C@@H]2CCCN2c2ncnc3[nH]cnc23)n1-c1ccccc1 |  |  |  | 44.3% | 17.4% | 
11 | Nc1ncc(Cl)c(N2CC[C@H]2c2nn3ccc(Cl)c3c(=O)n2-c2ccccc2)n1 |  |  |  |  | 22.9% | 

From ChEMBL document CHEMBL4350965 (J Med Chem, 2019)
